Consider three molecules from US10076578B2, “Probes for imaging of hypoxia” (Vanderbilt University, priority 2014, dated 2018).

Counter-ions that a name gives are not always drawn.

The subject of data set [1] is R28 rat retinal neuronal cells. The experiment in a line: in vitro imaging agent uptake assay (microplate fluorescence spectrophotometric assay). In kind it is cell-based. To be noted: for dose dependence of fluorescence in hypoxic cells: 12 h hypoxia, n=8. Here is the method:
(§1) Primary human Müller cells and R28 cell line were grown in low glucose DMEM supplemented with 10% Fetal Bovine Serum, 1× GlutaMAX, and 1× Penicillin-Streptomycin. All cells were maintained in a humidified environment with 5% CO2 at 37° C. unless otherwise noted. For hypoxia induction, assay plates were placed into a humidified chamber and ambient air was displaced with a mixture of 5% CO2 and 95% N2 at a flow rate of 20 L/min for 5 min according to manufacturer instructions and published methods (28). The chamber was clamped and placed at 37° C. for the remainder of the time point. R28 cells were treated with 100 μM pimonidazole hydrochloride diluted in complete media and subjected to hypoxia or normoxia for 4 h.
(§2) To perform in vitro imaging agent uptake assays, R28 cells or primary human Müller cells were seeded at a density of 15,000 cells per well in a 96-well black plate with clear bottom. When 90% confluent, assay plates were either place in hypoxia or kept in normoxia for 12 h. They were treated with imaging agents diluted in complete media and returned to hypoxia or kept in normoxia for 30 min. They were washed 4 times with pre-warmed Hank's Buffered Salt Solution (HBSS), kept in normoxia for 1 h, then washed 4 more times in HBSS. Fluorescence intensity was read ([…]: 490 nm, Emission: 520 nm) using a Synergy Mx Plate Reader from Biotek.
(§3) In order to measure the specificity of HYPOX-1 and HYPOX-2 for hypoxic retinal tissues in vitro, R28 rat retinal neuronal (17, 18) or primary human Müller cells (19) were conditioned in a hypoxic chamber purged with a mixture of nitrogen/carbon dioxide up to 12 h. These two cell lines model predominant oxygen-sensitive cell types in retinal diseases with a hypoxia-ischemia component (20). […] The micromolar doses of HYPOX-1 and HYPOX-2 used in these experiments are modeled on doses used to achieve optimal signal to background ratios using pimonidazole immunohistochemistry (21).

In data set [2] the test system is primary human Müller cells. The data set is described as above. As to conditions: for increase in hypoxic/normoxic fluorescence intensity ratio: 100 μM; for increase in hypoxic/normoxic fluorescence intensity ratio / dose dependence of fluorescence in hypoxic cells: 12 h hypoxia; for dose dependence of fluorescence in hypoxic cells: Müller cells, n=8. It counts as cell-based. Here is the method: as §1, §2, §3

Data set [3] concerns R28 cells. The experiment in a line: immunofluorescence imaging of cells incubated with imaging agent. It counts as cell-based, rat. To be noted: 100 μM, 4 h. As to the method: FIG. 2A-2F. R28 retinal neuronal cell lines conditioned under normoxic or hypoxic (4 h) conditions were incubated with 100 μM HYPOX-2 followed by fixation and immunostaining with an antibody specific for pimonidazole adducts in hypoxic cells.
Immunofluorescence analysis of cells was performed by seeding R28 cells at a density of 15,000 cells per well of 8-well chamber slides. When 90% confluent, cells were treated with either imaging agent and pimonidazole hydrochloride or imaging agent only, diluted in complete media, and placed in hypoxia or normoxia for 4 h. Cells were washed 4 times in HBSS, fixed for 10 min with 10% neutral buffered formalin at room temperature, washed 3 times with tris buffered saline and mounted with Prolong Gold with DAPI mounting media.
(§4) Imaging of R28 cells incubated with the hypoxia-sensitive imaging agents further confirmed specificity and mechanism of action.

Data set [4] has as its system R28 cells. The experiment in a line: BrdU cell proliferation assay (in vitro toxicity). It counts as cell-based, rat. As to conditions: up to 100 μM, 24 h. Here is the method:
FIG. 3A-3B. […] (n=4), p<0.01.
For in vitro toxicity studies, a BrdU cell proliferation assay was performed on R28 cells. The assay was performed according to the manufacturer's protocol with the following specifications. Cells were seeded at 2000 cells/well in a 96-well plate. 24 h after seeding, the cells were serum starved for 6 h. Imaging agents and vehicle controls diluted in complete media were added and allowed to incubate for 24 h. 4 h prior to the end of the incubation, BrdU was added at a concentration of 10 μM.
Both imaging agents were not acutely toxic to retinal cells as assessed by BrdU cell proliferation assays (FIG. 3).

The test system of data set [5] is R28 cells. The experiment in a line: Hypoxyprobe adduct immunostaining of normoxia- or hypoxia-conditioned cells. In kind it is cell-based, rat. As to conditions: 100 μM. As to the method:
as §1, with “FIG. 1A. R28 cells were treated with 100 μM pimonidazole hydrochloride (Hypoxyprobe) and subjected to normoxia or hypoxia-conditioning for 4 h, followed by Hypoxyprobe adduct immunostaining. […] Primary” for “Primary”, “h. In order to measure the specificity of HYPOX-1 and HYPOX-2 for hypoxic retinal tissues in vitro, R28 rat retinal neuronal (17, 18) or primary human Müller cells (19) were conditioned in a hypoxic chamber purged with a mixture of nitrogen/carbon dioxide up to 12 h. These two cell lines model predominant oxygen-sensitive cell types in retinal diseases with a hypoxia-ischemia component (20). […]” for “h.”

The test system of data set [6] is avascular hypoxic retina of OIR mice. The experiment in a line: mouse model of oxygen induced retinopathy (OIR), ex vivo imaging of retinal flatmounts. In kind it is in vivo. An excerpt:
FIG. 4A-4F. […] FIGS. 4(A) and 4(C) HYPOX-1 in P13 OIR mouse retina. FIGS. 4(B) and 4(D) Pimonidazole immunostaining colocalizes with HYPOX-1 region. […] FIG. 5. Retinal flatmounts from OIR mice intravenously injected with HYPOX-1 (green) were stained with endothelial cell marker, ICAM-2 (red). Accumulation of HYPOX-1 is observed in avascular retina. The mouse model of oxygen induced retinopathy (OIR) was selected as a mouse model for hypoxia and generated as published (24). Briefly, litters with 6 to 8 pups were placed into a 75% oxygen chamber with dams from P7-P12. On P12, pups were removed from the hyperoxic environment to room air. Imaging agents, vehicle controls and dye controls were intravitreally injected (3 μg in 1 μL injection volume) or intravenously injected via tail vein (60 mg/kg) 6 h after removal from hyperoxic environment. Pimonidazole hydrochloride (Hypoxyprobe Inc.) was injected intraperitoneally at a concentration of 60 mg/kg body weight. Immunofluorescence analysis of retinal tissues was performed by dissecting retinas from ocular tissues and fixing them in 10% neutral buffered formalin for 2 h. Tissues were then rinsed in Tris buffered saline and blocked/permeabilized in 10% donkey serum with 1% Triton X-100/0.05% Tween 20 in TBS for 6 h. Retinas were then stained for ICAM-2 and Hypoxyprobe followed by secondary antibody staining as indicated. […] Staining of excised retinas with ICAM-2 was used to identify retinal vasculature and its association with HYPOX staining. […] In addition, HYPOX accumulation in retinal tissue can be accomplished through intraocular or intravenous injection routes.

For data set [7], the system named is Human Retinal Microvascular Endothelial Cells (HRMEC). The experiment in a line: Western analysis of cell lysates with anti-Hypoxyprobe antibody. In kind it is cell-based. To be noted: 100 μM, 4 h, hypoxic vs normoxic HRMEC. Here is the method: FIG. 2G. HYPOX-1 accumulation in hypoxic retinal cells occur through nitroimidazole adduct formation. Human Retinal Microvascular Endothelial Cells (HRMEC) were treated with 100 μM HYPOX-1 under normoxic or hypoxic conditions for 4 h. Cell lysates were probed with an anti-Hypoxyprobe antibody by Western analysis.
as §4

Regarding `O=C1OC2(c3ccc(O)cc3Oc3cc(O)ccc32)c2ccc(NC(=S)NCC3CCN(CC(O)Cn4ccnc4[N+](=O)[O-])CC3)cc21` (stereo not drawn) [HYPOX-2], the “fluorescence intensity of hypoxia-conditioned vs normoxia-conditioned cells” value in data set [1] and in data set [2] (human Müller cells) was “significantly higher fluorescence intensity” each time. The “dose dependence of fluorescence in hypoxic cells” value (“dose dependence of fluorescence” for short) in data set [1] and in data set [2] was “dose-dependent fluorescence enhancement” each time. The “greater fluorescence intensity in hypoxia-conditioned cells” value in data set [2] (10 μM, human Müller cells) stood at 32 fold. In addition, the “increase in hypoxic/normoxic fluorescence intensity ratio” value in data set [2] (human Müller cells) worked out at 11 fold. The “pimonidazole adducts by adduct-specific antibody” value in the data set on R28 cells [3] (hypoxic R28 cells, but not normoxic cells) was “positive for pimonidazole adducts”. For the same molecule, the “accumulation in cells (fluorescence imaging)” value in the data set on R28 cells [3] (hypoxic vs normoxic R28 cells) was “accumulated in hypoxic cells but not normoxic cells”. For the same molecule, in the data set with R28 cells [4], the “cell proliferation (BrdU incorporation)” value is given as “no significant decrease in cell proliferation”.
For `O=[N+]([O-])c1nccn1CC(O)CN1CCCCC1` (stereo not drawn) [pimonidazole hydrochloride, reference compound], in the data set on R28 cells [5] (4 h hypoxia), the “Hypoxyprobe adduct immunostaining, hypoxia-conditioned cells” value is given as “positive staining”. Further, the “Hypoxyprobe adduct immunostaining, normoxia-conditioned cells” value with R28 cells [5] (4 h normoxia) is “minimal fluorescence”. The “Hypoxyprobe immunostaining of central avascular retina” value in data set [6] (OIR mice, intraperitoneal 60 mg/kg) is “positive immunostaining”. Further, the “accumulation in retina of room air mice (Hypoxyprobe staining)” value in data set [6] (room air mice) is reported as “no pimonidazole accumulation”.
`O=C1OC2(c3ccc(O)cc3Oc3cc(O)ccc32)c2ccc(NC(=S)NCCCCCn3ccnc3[N+](=O)[O-])cc21` [HYPOX-1]: in data set [1], the “fluorescence intensity of hypoxia-conditioned vs normoxia-conditioned cells” value was “significantly higher fluorescence intensity” and the “dose dependence of fluorescence” value was “dose-dependent fluorescence enhancement”. Besides, in data set [2] (human Müller cells), the “increase in hypoxic/normoxic fluorescence intensity ratio” value turned out to be 5 fold and the “fluorescence intensity of hypoxia-conditioned vs normoxia-conditioned cells” value is “significantly higher fluorescence intensity”. Moreover, the “dose dependence of fluorescence” value in data set [2] was “dose-dependent fluorescence enhancement”. Further, the detectability of probe result in data set [2] (concentrations lower than 50 μM) is given as “not detectable”. Besides, in data set [6] (OIR mice P13, intravitreal 3 μg, retinal flatmounts), the “accumulation in retina, intraocularly injected” value was “accumulation of intraocularly-injected HYPOX-1 in central avascular retinas”. Besides, the “accumulation in retina, intravenously injected” value in data set [6] (OIR mice, tail vein 60 mg/kg, ICAM-2 co-staining) is “accumulated in avascular regions”. The “accumulation in retina of age matched control mice” value in data set [6] (room air control mice with fully vascularized retinas) is recorded as “did not accumulate”. For the same molecule, in data set [7], the “nitroimidazole adduct formation (Western)” value is recorded as “Adduct formation was increased in hypoxic cells”. Besides, in the data set with R28 cells [4], the “cell proliferation (BrdU incorporation)” value is “no significant decrease in cell proliferation”.
